Tests used:
Assay in all cases: cryo-EM structure ([…] A)
[1] = biological target: T1, Drosophila complex I (NADH-binding site at the FMN cofactor) (Drosophila melanogaster, UniProt Q9VMI3); settings: co-purified; Dm1 active state
T1 construct: gene ND-51; native 43-subunit complex I, ~1 MDa monomer, purified from mitochondrial membranes of whole adult flies in DDM; no tag; with NADH dehydrogenase [ubiquinone] iron-sulfur protein 2; NADH dehydrogenase [ubiquinone] iron-sulfur protein 7; NADH-ubiquinone oxidoreductase chain 1

[2] = biological target: T2, subunit NDUFA10 of Drosophila complex I (Drosophila melanogaster, UniProt P91929); type: binding; settings: modelled in Dm1 map; identity taken from earlier work
T2 construct: gene ND-42; subunit within native 43-subunit complex I purified from mitochondrial membranes of whole adult flies; no tag
T2 sequence (P91929 61-407): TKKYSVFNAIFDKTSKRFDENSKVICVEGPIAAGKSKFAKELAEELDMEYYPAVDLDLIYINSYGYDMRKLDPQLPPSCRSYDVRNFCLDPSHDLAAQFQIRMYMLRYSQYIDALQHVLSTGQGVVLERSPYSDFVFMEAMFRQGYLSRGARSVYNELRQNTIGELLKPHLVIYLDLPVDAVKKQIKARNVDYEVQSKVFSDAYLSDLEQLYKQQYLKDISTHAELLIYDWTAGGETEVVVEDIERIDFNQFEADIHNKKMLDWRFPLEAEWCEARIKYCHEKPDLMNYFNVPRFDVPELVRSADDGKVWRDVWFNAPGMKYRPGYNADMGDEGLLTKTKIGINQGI

[3] = test system: T3, Drosophila complex I (ubiquinone-binding site; subunits NDUFS2, NDUFS7, ND1, ND3, ND6); parameters: species or system Drosophila melanogaster; settings: co-purified; Dm1 active state; partially inserted in ubiquinone channel; ubiquinone-9 or -10 referred to as Q9
T3 construct: gene ND-49; native 43-subunit complex I (14 core, 29 supernumerary), ~1 MDa monomer, purified from mitochondrial membranes of whole adult flies in DDM; no tag; NDUFA2 and NDUFC1 absent; with NADH dehydrogenase [ubiquinone] flavoprotein 1
T3 sequence (Q9V4E0 39-468): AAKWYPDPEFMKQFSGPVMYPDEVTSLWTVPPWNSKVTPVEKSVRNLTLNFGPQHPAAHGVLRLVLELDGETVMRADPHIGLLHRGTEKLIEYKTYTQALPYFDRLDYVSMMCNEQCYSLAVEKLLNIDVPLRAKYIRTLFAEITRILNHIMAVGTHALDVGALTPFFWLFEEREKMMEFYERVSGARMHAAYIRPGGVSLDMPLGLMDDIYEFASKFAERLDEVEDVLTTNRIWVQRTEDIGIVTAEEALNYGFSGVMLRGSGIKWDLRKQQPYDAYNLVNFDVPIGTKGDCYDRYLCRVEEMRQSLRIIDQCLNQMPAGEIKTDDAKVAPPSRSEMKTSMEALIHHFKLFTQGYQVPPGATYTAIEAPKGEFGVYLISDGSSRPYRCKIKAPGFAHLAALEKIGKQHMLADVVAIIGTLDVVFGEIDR
T3 sequence (Q9VXK7 40-221, further chain): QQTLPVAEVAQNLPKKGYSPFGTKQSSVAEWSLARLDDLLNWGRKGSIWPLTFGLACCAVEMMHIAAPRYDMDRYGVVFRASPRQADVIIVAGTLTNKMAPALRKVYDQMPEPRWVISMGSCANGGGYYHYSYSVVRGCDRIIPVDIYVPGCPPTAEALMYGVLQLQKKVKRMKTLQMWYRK
T3 sequence (C7DZL9 1-315, further chain): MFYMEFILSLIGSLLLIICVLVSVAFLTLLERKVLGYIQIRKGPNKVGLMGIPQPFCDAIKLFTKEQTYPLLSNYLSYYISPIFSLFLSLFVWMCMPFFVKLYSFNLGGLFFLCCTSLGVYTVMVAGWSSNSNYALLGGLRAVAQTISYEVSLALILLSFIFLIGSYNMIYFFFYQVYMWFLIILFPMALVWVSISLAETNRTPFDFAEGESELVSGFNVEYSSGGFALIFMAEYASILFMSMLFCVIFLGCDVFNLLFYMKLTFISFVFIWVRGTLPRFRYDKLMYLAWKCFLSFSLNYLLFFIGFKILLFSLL
T3 sequence (P18930 whole entry, further chain): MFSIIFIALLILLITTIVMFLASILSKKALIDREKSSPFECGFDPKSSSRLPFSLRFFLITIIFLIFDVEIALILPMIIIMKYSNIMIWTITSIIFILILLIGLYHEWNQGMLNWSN
T3 sequence (P18933 1-173, further chain): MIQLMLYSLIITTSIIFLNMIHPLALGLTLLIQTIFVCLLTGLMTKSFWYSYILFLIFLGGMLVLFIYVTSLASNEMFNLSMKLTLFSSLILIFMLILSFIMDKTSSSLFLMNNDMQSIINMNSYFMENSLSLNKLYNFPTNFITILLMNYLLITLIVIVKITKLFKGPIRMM

T1 sequence (Q9VMI3 34-474, one chain of several): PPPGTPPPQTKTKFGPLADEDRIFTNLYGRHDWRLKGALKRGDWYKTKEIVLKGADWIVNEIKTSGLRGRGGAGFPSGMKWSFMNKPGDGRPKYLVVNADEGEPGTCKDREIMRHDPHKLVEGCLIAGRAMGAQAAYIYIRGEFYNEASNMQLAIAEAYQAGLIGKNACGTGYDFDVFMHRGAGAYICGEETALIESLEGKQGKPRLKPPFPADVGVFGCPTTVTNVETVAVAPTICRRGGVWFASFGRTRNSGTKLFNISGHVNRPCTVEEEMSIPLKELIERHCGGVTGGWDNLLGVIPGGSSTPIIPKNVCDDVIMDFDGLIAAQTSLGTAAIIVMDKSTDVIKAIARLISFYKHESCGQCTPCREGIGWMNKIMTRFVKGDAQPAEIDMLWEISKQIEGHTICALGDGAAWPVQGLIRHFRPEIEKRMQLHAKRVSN

`Cc1cc2nc3c(=O)[nH]c(=O)nc-3n(C[C@H](O)[C@H](O)[C@H](O)COP(=O)(O)O)c2cc1C` [FMN] was tested, and the “cryo-EM structure (3.28 A)” value [1] was “The NADH-binding site at the flavin mononucleotide (FMN) cofactor”.
With `Nc1nc2c(ncn2[C@H]2C[C@H](O)[C@@H](COP(=O)(O)OP(=O)(O)OP(=O)(O)O)O2)c(=O)[nH]1` [dGTP] the “cryo-EM structure (3.28 A)” value [2] was “dGTP was modelled in subunit NDUFA10”.
With `COC1=C(OC)C(=O)C(C/C=C(\C)CC/C=C(\C)CC/C=C(\C)CC/C=C(\C)CC/C=C(\C)CC/C=C(\C)CC/C=C(\C)CC/C=C(\C)CCC=C(C)C)=C(C)C1=O` [Q9] the “cryo-EM structure (3.28 A)” value [3] was “density for Q9 is observed within the site, although the Q9 is only partially inserted”.
